Several values for one entry are separate records, joined by “and”; a condition that tells them apart may be missing. Identical values can stand only once.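 Each compound was tested at five concentrations against cells in 96-well plates for 48 hours. GI50 marks 50% less growth. At the TGI there is no net growth.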 Bounds are passed on as bounds.

For 21 compounds, TGI and GI50 results are on record in PubChem BioAssay (NCI).

Common to all, as to assay: growth of human tumour cells (NCI), 48 h
Assay [1] relates to A549 NSCLC.
The subject of assay [2] is CCRF-CEM leukemia.
Assay [3] has as its system DU-145 prostate.
Assay [4] has as its system EKVX NSCLC.
In assay [5] the test system is IGROV1 ovarian.
Assay [6] deals with MCF7 breast.
The test system of assay [7] is MDA-N.
Assay [8] has as its system NCI-H226 lung.
The test system of assay [9] is OVCAR-5 ovarian.
The test system of assay [10] is RXF 393 renal.
Assay [11] deals with TK-10 renal.

Consider `CC1(C)CCN2C(=O)C34CCCC3CC21S4` (stereo unspecified), for which the TGI in assay [1], in assay [2], in assay [3], in [4], in assay [5] and in assay [6] was more than 100 µM each time. For the same compound, the TGI in assay [7], in assay [8], in assay [9], in assay [10] and in assay [11] was more than 100 µM each time.

As for `O=C1Oc2ccccc2C1C/C(=N\Nc1ccccc1)c1ccccc1O` (stereo unspecified), the TGI in assay [1], in [2], in assay [3], in [4], in assay [5] and in assay [6] was more than 100 µM each time. Moreover, the TGI in [7], in assay [8], in assay [9], in [10] and in [11] was more than 100 µM in each case.

As for `CCOC(=O)C(NC(=O)OCc1ccccc1)C(=O)O` (stereo unspecified), the TGI in assay [1], in assay [2], in assay [3], in assay [4], in assay [5] and in assay [6] was more than 100 µM throughout. The TGI in [7], in assay [8], in [9], in [10] and in assay [11] was more than 100 µM throughout.

With `CC1(C)C2CCC3CC(CCC#N)CCC3C21C#N` (stereo unspecified), the TGI in [1], in [2], in [3], in assay [4], in [5] and in assay [6] was more than 100 µM in each case. Moreover, the TGI in assay [7], in [8], in [9], in assay [10] and in assay [11] was more than 100 µM throughout.

On to `CC1=NN(c2nc(N)nc(NS(=O)(=O)c3cc(C)c(Cl)cc3S)n2)C(C)(C)C1`, for which the TGI in assay [1], in assay [2], in [3], in [4], in assay [5] and in [6] was more than 10 µM in each case. Further, the TGI in assay [7], in assay [8], in assay [9], in [10] and in [11] was more than 10 µM throughout.

As for `FC(F)(F)c1ccccc1C1SCC2=Nc3ccccc3CN21` (stereo unspecified), the TGI in [1] was found to be 27.6 µM; in assay [2], 95 µM; in assay [3], 25.4 µM; in assay [4] it was 24.9 µM; in assay [5], 29.7 µM; in assay [6], 26.5 µM. Further, the TGI in [7] is more than 100 µM; in assay [8] it was 26.7 µM; in [9], 26.6 µM; in [10], 22 µM; in [11] it was 29.9 µM.

For `CS(=O)(=O)N1CC(CCl)c2ccc(NO)cc21` (stereo unspecified), the TGI in assay [1] was more than 100 µM; in assay [2] it was 5.1 µM; in assay [3], more than 100 µM; in assay [4], 32.5 µM; in assay [5] it was 29 µM; in assay [6] it was 35.5 µM. Further, the TGI in assay [7] was 32.4 µM; in assay [8], more than 78 µM; in assay [9], 40.5 µM; in assay [10] it was 10.9 µM; in [11] it was 51.1 µM.

Consider `O=C1CN(c2ccccc2)Cc2nc(Cl)ccc2N1`, for which the TGI in [1], in assay [2], in assay [3], in assay [4], in [5] and in assay [6] was more than 100 µM in each case. Further, the TGI in assay [7], in assay [8], in [9], in assay [10] and in [11] was more than 100 µM throughout.

`CC(C)/C=C1\CCC(CN(C)C)C1=O` (stereo unspecified): the TGI stood at 17.2 µM in assay [1]; 5.34 µM in assay [2]; 3.21 µM in assay [3]; 15.5 µM in [4]; 11.4 µM in [5]; 1.8 µM in assay [6]. Moreover, the TGI in [7] was 7.78 µM; in [8], 83 µM; in assay [9], 15.3 µM; in assay [10], 1.31 µM; in [11] it was 5.96 µM.

Turning to `C#CC[C@@H]1C(=O)N(Cc2ccc(OC)cc2)[C@@H](C(C)C)C(=O)N1Cc1ccc(OC)cc1`, the TGI in assay [1] is more than 100 µM; in assay [2], 36.2 µM; in assay [3], more than 100 µM; in [4] it was 69 µM; in assay [5] it was more than 100 µM; in assay [6], 54.9 µM. The TGI is 67.1 µM in assay [7]; more than 100 µM in assay [8]; more than 100 µM in assay [9]; 25.6 µM in assay [10]; more than 100 µM in assay [11].

Regarding `CC(CSC(=N)N)C(N)=O` (stereo unspecified), the TGI in assay [1], in assay [2], in assay [3], in assay [4], in assay [5] and in [6] was more than 100 µM each time. In addition, the TGI in assay [7], in assay [8], in assay [9], in assay [10] and in assay [11] was more than 100 µM each time.

For the compound `COc1nc(N=P(c2ccccc2)(c2ccccc2)c2ccccc2)cc(=O)n1C`, the TGI in [1], in assay [2], in [3], in assay [4], in [5] and in assay [6] was more than 100 µM in each case. Besides, the TGI in assay [7], in [8], in assay [9], in assay [10] and in assay [11] was more than 100 µM throughout.

As for `CC(=O)CCCCn1c(=O)c2c(nc(Br)n2C)n(C)c1=O`, the TGI was more than 100 µM in assay [1]; more than 100 µM in assay [2]; more than 100 µM in assay [3]; 84.1 µM in assay [4]; more than 100 µM in assay [5]; more than 100 µM in assay [6]. The TGI in assay [7], in assay [8], in assay [9], in [10] and in assay [11] was more than 100 µM throughout.

In the case of `O=C1N/C(=N\N=C\c2ccccc2)C(c2ccccc2)O1` (stereo unspecified), the TGI in assay [1] is more than 100 µM; in [2], 49.4 µM; in assay [3] it was more than 100 µM; in [4] it was more than 100 µM; in assay [5], more than 100 µM; in [6], more than 100 µM. In addition, the TGI in assay [7], in [8], in assay [9], in [10] and in [11] was more than 100 µM each time.

In the case of `COc1ccc(C(O)/C(=N/N)c2nc3ccc(Cl)cc3[nH]c2=O)cc1` (stereo unspecified), the TGI in assay [1], in assay [2], in [3], in [4], in assay [5] and in assay [6] was more than 100 µM each time. In addition, the TGI in assay [7], in [8], in assay [9], in [10] and in assay [11] was more than 100 µM each time.

Regarding `FC(F)(F)c1ccc(C2ON=C(c3ccccc3)N2C23CC4CC(CC(C4)C2)C3)cc1` (stereo unspecified), the TGI in assay [1], in assay [2], in assay [3], in assay [4], in [5] and in assay [6] was more than 10 µM throughout. In addition, the TGI in assay [7], in [8], in assay [9], in assay [10] and in [11] was more than 10 µM in each case.

With `COC1(CC[C@@H](C)COC2OC(CO)C(O)C(O)C2O)O[C@H]2C[C@H]3[C@@H]4CC=C5C[C@@H](OC6OC(CO)C(OC7OC(C)C(O)C(O)C7O)C(O)C6OC6OC(C)C(O)C(O)C6O)CC[C@]5(C)[C@H]4CC[C@]3(C)[C@H]2[C@@H]1C` (stereo partly specified), the GI50 in assay [1] is 1.55 µM; in assay [2] it was 7.6 µM; in assay [3], 1.92 µM; in assay [4] it was 10 µM; in [5] it was 2.5 µM; in [6], 3.74 µM. In addition, the GI50 in assay [9] is 1.91 µM; in assay [10], 1.92 µM; in assay [11], 8.04 µM. In addition, the TGI in [1] was 4.22 µM; in assay [2] it was 20.2 µM; in assay [3] it was 4.17 µM; in assay [4] it was 33.3 µM; in assay [5] it was 7.16 µM; in assay [6], 12.9 µM. Also, the TGI in assay [7] was 7.43 µM; in [8], 15.3 µM; in assay [9] it was 10.5 µM; in assay [10], 5.45 µM; in assay [11] it was 23.1 µM.

For `O=C/C(=C1/C=Cc2cc([N+](=O)[O-])ccc2S1)c1ccccc1`, the TGI in [1], in assay [2], in [3], in assay [4], in assay [5] and in assay [6] was more than 100 µM each time. Also, the TGI in assay [7], in assay [8], in [9], in assay [10] and in [11] was more than 100 µM each time.

Turning to `COc1ccc(C2c3cc4c(cc3OC(NNc3ccccc3)C2C)OCO4)cc1` (stereo unspecified), the TGI in assay [1] is more than 100 µM; in [2], 40.5 µM; in assay [3], more than 100 µM; in assay [4] it was 24.3 µM; in [5], more than 100 µM; in assay [6], 44.7 µM. Also, the TGI in assay [7] is more than 100 µM; in [8] it was more than 100 µM; in [9], more than 100 µM; in assay [10], 54.3 µM; in assay [11], more than 100 µM.

Turning to `CC1=CC(=O)CC2(C)CCC(C(C)CC(=O)CC(C)C)CC12OO` (stereo unspecified), the TGI is 30 µM and 31.1 µM in [1]; 59.8 µM and 46.6 µM in assay [2]; 32.3 µM and 29.5 µM in assay [3]; 36.8 µM and 34.3 µM in assay [4]; 46.6 µM and 31 µM in assay [5]; 31.9 µM and 31.7 µM in assay [6]. Besides, the TGI in assay [7] is 34.7 µM and 33.4 µM; in assay [8], 43.5 µM and 37.7 µM; in assay [9], 35.5 µM and 47.5 µM; in [10], 26.2 µM and > 100 µM; in assay [11], 32.8 µM and 34.1 µM. Also, in [10], the GI50 is 12.5 µM and 32.6 µM.

In the case of `Nc1nc(Nc2ccc(Cl)c(Cl)c2)nc2nc[nH]c12`, the TGI was 33.6 µM in [1]; 41 µM in assay [2]; 21.6 µM in assay [3]; 18.8 µM in assay [4]; 27 µM in assay [5]; 45.6 µM in assay [6]. In addition, the TGI in assay [7] came out at 33.5 µM; in assay [8] it was 50.2 µM; in assay [9], 75.3 µM; in assay [10], 20.1 µM; in [11] it was 28.3 µM.
